From ChEMBL document CHEMBL5038635, “Discovery of Salidroside-Derivated Glycoside Analogues as Novel Angiogenesis Agents to Treat Diabetic Hind Limb Ischemia” (J Med Chem, 2022)
Converted amounts (≈) assume the structure as drawn. The source made the active and inactive calls. The calls are words filed in the database; no cut-off is given here.

Experiments:
[1] = tested on: C2C12; assay: Angiogenic activity in mouse C2C12 cells assessed as accumulation PDGF-BB protein expression at 300 uM by Western blot analysis; type: functional, cell-based
[2] = Water solubility of the compound by HPLC analysis
[3] = Permeability coefficient across basolateral to apical side in human Caco-2 cells by HPLC-UV analysis
[4] = tested on: C2C12; assay: Apoptotic rate in hyperglycemia-treated mouse C2C12 cells assessed as necrotic cells at 15 uM by AnnexinV-FITC/PI staining based flow cytometric analysis (reference value: 0.56 %); type: functional
[5] = tested on: C2C12; assay: Apoptotic rate in hyperglycemia-treated mouse C2C12 cells assessed as necrotic cells at 30 uM by AnnexinV-FITC/PI staining based flow cytometric analysis (reference value: 0.56 %); type: functional
[6] = tested on: C2C12; assay: Apoptotic rate in hyperglycemia-treated mouse C2C12 cells assessed as early apoptotic cells at 30 uM by AnnexinV-FITC/PI staining based flow cytometric analysis (reference value: 7.10 %); type: functional
[7] = tested on: C2C12; assay: Upregulation of PDGF-B protein expression in mouse C2C12 cells at 30 uM by Western blot analysis; type: functional, cell-based
[8] = tested on: C2C12; assay: Upregulation of FGF2 protein expression in mouse C2C12 cells at 30 uM by Western blot analysis; type: functional, cell-based
[9] = tested on: C2C12; assay: Upregulation of HGF protein expression in mouse C2C12 cells at 30 uM by Western blot analysis; type: functional, cell-based
[10] = tested on: C2C12; assay: Upregulation of FGF1protein expression in mouse C2C12 cells at 30 uM by Western blot analysis; type: functional, cell-based
[11] = tested on: C2C12; assay: Upregulation of TNFRSF12A protein expression in mouse C2C12 cells at 30 uM by Western blot analysis; type: functional, cell-based
[12] = tested on: C2C12; assay: Reversal of hyperglycemia-induced PDGF-BB protein level reduction in mouse C2C12 cells measured at 30 uM by Western blot analysis; type: functional, cell-based
[13] = tested on: C2C12; assay: Reversal of hyperglycemia-induced VEGF-A protein level reduction in mouse C2C12 cells measured at 30 uM by ELISA; type: functional, cell-based
[14] = tested on: C2C12; assay: Induction of F-actin polymerization in mouse C2C12 cells at 30 uM pretreated with compound for 12 hr followed by hypoxic condition for 24 hrs by phalloidin staining based confocal microscopy; type: functional, cell-based; conditions: time 36.0 hrs
[15] = tested on: C2C12; assay: Reversal of cell migration in mouse C2C12 cells at 30 uM under hyperglycemic condition incubated for 24 hrs by crystal violet dye based transwell chamber assay; type: functional
[16] = tested on: C2C12; assay: Angiogenesis activity in mouse C2C12 cells with silenced HIF-1alpha assessed increase in cell migration at 30 uM under hyperglycemic condition incubated for 24 hrs by crystal violet dye based transwell chamber assay; type: functional
[17] = tested on: C2C12; assay: Apoptotic rate in mouse C2C12 cells with silenced HIF-1alpha assessed as late apoptotic cells at 30 uM by AnnexinV-FITC/PI staining based FACS analysis (reference value: 9.62 %); type: functional
[18] = tested on: MOVAS-1; assay: Angiogenesis activity in mouse MOVAS-1 assessed as increase of cell migration using conditioned medium of mouse C2C12 cells with silenced HIF-1alpha treated at 30 uM under hyperglycemic condition for 12 hrs followed by hypoxia for 24 hrs by crystal violet dye based transwell assay; type: functional; conditions: time 36.0 hrs
[19] = tested on: MOVAS-1; assay: Induction proliferation of mouse MOVAS-1 cells assessed as increase in number of EdU-positive cells using conditioned medium of mouse C2C12 cells treated at 30 uM under hyperglycemic condition for 12 hrs followed by hypoxia for 24 hrs by EdU-incorporation assay; type: functional; conditions: time 36 hrs
[20] = tested on: HUVEC; assay: Angiogenic activity in human HUVEC cells assessed as suppression of F-actin polymerization at 30 uM using conditioned medium of mouse C2C12 cells treated at 30 uM under hyperglycemic condition for 12 hrs followed by hypoxia for 12 hrs by phalloidin staining based confocal microscopy; type: functional, cell-based; conditions: time 24.0 hrs
[21] = tested on: MOVAS-1; assay: Angiogenic activity in mouse MOVAS-1 cells assessed as suppression of F-actin polymerization at 30 uM using conditioned medium of mouse C2C12 cells treated at 30 uM under hyperglycemic condition for 12 hrs followed by hypoxia for 12 hrs by phalloidin staining based confocal microscopy; type: functional, cell-based; conditions: time 24.0 hrs
[22] = tested on: MOVAS-1; assay: Induction proliferation of mouse MOVAS-1 assessed as increase in number of EdU-positive cells using conditioned medium of mouse C2C12 cells with silenced HIF-1alpha treated at 30 uM under hyperglycemic condition for 12 hrs followed by hypoxia for 24 hrs by EdU-incorporation assay; type: functional, cell-based; conditions: time 36.0 hrs
[23] = tested on: HUVEC; assay: Induction proliferation of human HUVEC cells assessed as increase in number of EdU-positive cells using conditioned medium of mouse C2C12 cells with silenced HIF-1alpha treated at 30 uM under hyperglycemic condition for 12 hrs followed by hypoxia for 24 hrs in presence of VEGFR inhibitor Ki8751 by EdU-incorporation assay; type: functional, cell-based; conditions: time 36.0 hrs
[24] = tested on: MOVAS-1; assay: Angiogenesis activity in mouse MOVAS-1 cells assessed as suppression of cell migration using conditioned medium of mouse C2C12 cells with silenced HIF-1alpha treated at 30 uM under hyperglycemic condition for 12 hrs followed by hypoxia for 24 hrs in presence of PDGF-BB inhibitor CP868596 by crystal violet dye based transwell assay; type: functional; conditions: time 36.0 hrs
[25] = tested on: Mus musculus; assay: Antidiabetic activity in diabetic HLI C57BL/6 mouse model assessed as increase in blood perfusion recovery at 30 mg/kg administered intramuscularly measured after 21 days; type: functional; conditions: time 21 day
[26] = tested on: Mus musculus; assay: Antidiabetic activity in diabetic HLI C57BL/6 mouse model assessed as effect on blood glucose level at 15 mg/kg administered intramuscular; type: functional, organism-based
[27] = tested on: Mus musculus; assay: Antidiabetic activity in diabetic HLI C57BL/6 mouse model assessed as morphological changes at 30 mg/kg administered intramuscularly; type: functional, organism-based
[28] = tested on: Mus musculus; assay: Angiogenic activity in diabetic HLI C57BL/6 mouse model assessed as VEGF-A protein expression at 30 mg/kg, im administered for 21 days followed by surgery by Western blot analysis; type: functional, organism-based; conditions: time 21.0 day
[29] = tested on: Mus musculus; assay: Antidiabetic activity in diabetic HLI C57BL/6 mouse model assessed as suppression of apoptotic rate in skeletal muscle cell in gastrocnemius muscle at 15 to 30 mg/kg, IM administered by TUNEL assay; type: functional, organism-based; conditions: dose 15-30 mg/kg
[30] = Toxicity in diabetic HLI C57BL/6 mouse model assessed as heart pathology at 30 mg/kg, IM administered by HE staining based assay; type: organism-based; conditions: in vivo
[31] = Toxicity in diabetic HLI C57BL/6 mouse model assessed as liver pathology at 30 mg/kg, IM administered by HE staining based assay; type: organism-based; conditions: in vivo
[32] = Toxicity in diabetic HLI C57BL/6 mouse model assessed as spleen pathology at 30 mg/kg, IM administered by HE staining based assay; type: organism-based; conditions: in vivo
[33] = Toxicity in diabetic HLI C57BL/6 mouse model assessed as kidney pathology at 30 mg/kg, IM administered by HE staining based assay; type: organism-based; conditions: in vivo
[34] = tested on: C2C12; assay: Induction proliferation of mouse C2C12 cells assessed as suppression of apoptotic rate at 30 uM under normoglycemic condition by Annexin V/PI staining based Flowcytometry method; type: functional, cell-based
[35] = tested on: C2C12; assay: Induction proliferation of mouse C2C12 cells at 30 uM pretreated with compound in hyperglycemia condition for 12 hr followed by hypoxia condition for 24 hrs presence of MeOE2 inhibitor by EdU-incorporation assay; type: functional, cell-based; conditions: time 36.0 hrs
[36] = tested on: C2C12; assay: Angiogenesis activity in mouse C2C12 cells assessed as increase in cell migration at 30 uM under hyperglycemic condition for 12 hrs followed by hypoxia for 24 hrs presence of MeOE2 inhibitor by crystal violet dye based transwell assay; type: functional; conditions: time 36.0 hrs
[37] = tested on: C2C12; assay: Down regulation of PHD3 mRNA expression in mouse C2C12 cells at 30 uM by qRT-PCR analysis; type: functional, cell-based

## COc1ccc(Cc2cccc(O[C@@H]3O[C@H](CO)[C@@H](O)[C@H](O)[C@H]3O)c2)cc1
[1]
  inhibition: Active
[2]
  solubility: 1910 µg/mL (≈ 5.07 mM)
[3]
  Papp B→A: 1.11 ×10⁻⁶ cm/s
[4]
  Activity: 0.38%
[5]
  Activity: 0.35%
[6]
  Activity: 2.13%
[7]
  Activity: Active
[8]
  Activity: Active
[9]
  Activity: Active
[10]
  Activity: Active
[11]
  Activity: Active
[12]
  Activity: Active
[13]
  Activity: Active
[14]
  Activity: Active
[15]
  Activity: Active
[16]
  Activity: inactive
[17]
  Activity: 14.63%
[18]
  Activity: Active
[19]
  fold change (FC): 2
[20]
  Activity: Active
[21]
  Activity: Active
[22]
  Activity: Active
[23]
  Activity: inactive
[24]
  Activity: inactive
[25]
  Activity: 80%
[26]
  Activity: Active
[27]
  Activity: Active
[28]
  Activity: Active
[29]
  Activity: Active
[30]
  Activity: Non-Toxic
[31]
  Activity: Non-Toxic
[32]
  Activity: Non-Toxic
[33]
  Activity: Non-Toxic
[34]
  Activity: Active
[35]
  Activity: inactive
[36]
  Activity: Active
[37]
  Activity: Active
